Experimental data from ChEMBL document CHEMBL1147138 (J Med Chem, 2007).
pEC50, pIC50, pKi: −log10 of the molar value.

What was measured:
Mu-type opioid receptor [1] = target: T1, Mu-type opioid receptor (Homo sapiens, UniProt P35372)
Description: Agonist activity at human opioid gamma receptor expressed in CHO cells assessed as stimulation of [35S]GTP-gamma-S binding

[2] = target: T2, Kappa-type opioid receptor (Homo sapiens, UniProt P41145); assay: biochemical; assay type: cell-based, CHO
Description: Displacement of [3H]U-69593 from human opioid kappa receptor expressed in CHO cells

Mu-type opioid receptor [3] = target: T1, Mu-type opioid receptor; remark: listed apart in the source
Description: Agonist activity at human opioid gamma receptor expressed in CHO cells assessed as inhibition of DAGO-stimulated [35S]GTPgammaS binding

[4] = target: Delta-type opioid receptor (Homo sapiens, UniProt P41143); assay: biochemical; assay type: cell-based, CHO
Sequence of Delta-type opioid receptor (P41143 whole entry): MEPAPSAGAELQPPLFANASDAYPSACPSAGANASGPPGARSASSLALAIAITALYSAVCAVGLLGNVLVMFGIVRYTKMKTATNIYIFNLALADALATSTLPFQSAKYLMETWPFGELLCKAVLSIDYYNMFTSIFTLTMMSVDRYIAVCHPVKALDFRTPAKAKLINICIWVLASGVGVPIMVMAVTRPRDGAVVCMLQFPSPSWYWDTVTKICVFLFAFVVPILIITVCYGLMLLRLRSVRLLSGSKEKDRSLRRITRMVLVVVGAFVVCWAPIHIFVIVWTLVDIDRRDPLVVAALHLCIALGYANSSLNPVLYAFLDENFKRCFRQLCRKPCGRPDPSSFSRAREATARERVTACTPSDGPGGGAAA
Description: Displacement of [3H]naltrindole from human opioid delta receptor expressed in CHO cells

[5] = target: T2, Kappa-type opioid receptor; assay type: functional, cell-based, CHO
Description: Agonist activity at human opioid kappa receptor expressed in CHO cells assessed as stimulation of [35S]GTPgammaS binding

Mu-type opioid receptor [6] = target: T1, Mu-type opioid receptor; assay: biochemical
Description: Displacement of [3H]DAMGO from human opioid gamma receptor expressed in CHO cells

[7] = target: T2, Kappa-type opioid receptor
Description: Antagonist activity at human opioid kappa receptor expressed in CHO cells assessed as inhibition of U-50488-stimulated [35S]GTP-gamma-S binding

T2 sequence (P41145 whole entry): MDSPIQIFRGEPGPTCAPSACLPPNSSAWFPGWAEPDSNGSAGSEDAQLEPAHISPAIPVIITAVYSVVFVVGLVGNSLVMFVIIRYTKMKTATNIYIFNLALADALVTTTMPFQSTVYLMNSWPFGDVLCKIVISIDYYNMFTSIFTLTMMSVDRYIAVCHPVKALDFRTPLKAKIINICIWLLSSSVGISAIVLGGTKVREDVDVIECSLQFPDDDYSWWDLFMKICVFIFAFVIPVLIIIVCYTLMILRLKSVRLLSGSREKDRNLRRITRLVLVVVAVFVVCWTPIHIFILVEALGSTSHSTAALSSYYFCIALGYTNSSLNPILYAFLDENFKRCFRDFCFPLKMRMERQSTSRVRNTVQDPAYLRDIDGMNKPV
T1 sequence (P35372 whole entry): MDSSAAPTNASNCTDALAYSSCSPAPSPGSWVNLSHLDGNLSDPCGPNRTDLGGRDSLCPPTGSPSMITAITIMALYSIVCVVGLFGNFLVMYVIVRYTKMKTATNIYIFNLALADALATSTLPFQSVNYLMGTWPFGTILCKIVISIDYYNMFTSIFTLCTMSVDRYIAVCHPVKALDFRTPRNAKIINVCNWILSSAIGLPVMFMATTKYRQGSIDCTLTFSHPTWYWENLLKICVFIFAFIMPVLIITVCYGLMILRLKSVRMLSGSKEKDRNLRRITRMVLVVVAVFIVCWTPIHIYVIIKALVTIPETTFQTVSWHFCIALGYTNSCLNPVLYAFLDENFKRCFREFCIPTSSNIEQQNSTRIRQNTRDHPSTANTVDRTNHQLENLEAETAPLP

| SMILES | pEC50 (Mu-type opioid receptor [1]) | pKi [2] | pIC50 (Mu-type opioid receptor [3]) | pKi [4] | pEC50 [5] | pKi (Mu-type opioid receptor [6]) | pIC50 [7] |
| --- | --- | --- | --- | --- | --- | --- | --- |
| C=CCN1CC[C@]23c4c5ccc(OC(=O)CCCCCCCCC(=O)Oc6ccc7c(c6)[C@@]68CCCCC6[C@@H](C7)N(CC6CCC6)CC8)c4O[C@H]2C(=O)CC[C@@]3(O)[C@H]1C5 (some centres undefined) | 8.70 | 9.89 | 7.60 | 7.41 | 8.80 | 9.37 | – |
| O=C(CCCCCCCCC(=O)Oc1ccc2c3c1O[C@H]1C(=O)CC[C@@]4(O)[C@@H](C2)N(CC2CC2)CC[C@]314)Oc1ccc2c(c1)[C@@]13CCCCC1[C@@H](C2)N(CC1CCC1)CC3 (some centres undefined) | 8.36 | 9.92 | 6.80 | 7.82 | 8.47 | 9.54 | – |
| O=C(CCCCCCCCC(=O)Oc1ccc2c3c1O[C@H]1[C@H](O)CC[C@@]4(O)[C@@H](C2)N(CC2CCC2)CC[C@]314)Oc1ccc2c(c1)[C@@]13CCCCC1[C@@H](C2)N(CC1CCC1)CC3 (some centres undefined) | – | 9.47 | 7.74 | 7.55 | 8.49 | 9.34 | 6.22 |
| O=C(O)CCCCCCCCC(=O)Oc1ccc2c(c1)[C@@]13CCCCC1[C@@H](C2)N(CC1CCC1)CC3 (some centres undefined) | – | – | – | – | 7.55 | – | – |
